According to patent publication US11058691B2, “Nitric oxide releasing prostaglandin derivatives for treating normal tension glaucoma” (BAUSCH & LOMB INCORPORATED, priority 2016, dated 2021):
Entries after “also recorded” stand apart in the source; their conditions may differ. Structures can show the parent of a compound that is named as a salt.

Assays:
[1] = Post hoc analysis of a single-arm open-label Phase 3 clinical study in Japanese subjects: IOP lowering in eyes with baseline IOP ≤19 mm Hg; assay type: in vivo, human; conditions: Japanese population, baseline IOP ≤19 mm Hg (10 AM); 0.024% solution once daily in the evening; over the 12 months study period
Source text: The findings reported below derive from a post hoc analysis of the results of a single-arm, multicenter, open-label Phase 3 clinical study that evaluated the IOP lowering effect of a 0.024% solution of Compound (1) dissolved in vehicle in Japanese subjects with open-angle glaucoma (including normal-tension glaucoma, pigmentary glaucoma, or pseudoexfoliative glaucoma) or ocular hypertension.
Subjects≥20 years instilled one drop of a 0.024% solution of Compound (1) once daily in the evening for 12 months. Intraocular pressure was measured at 10 AM at baseline, and every 4 weeks thereafter for a total of 13 visits. Study and non-study (i.e. fellow) eyes with normal IOP at baseline treated with Compound (1) 0.024% once a day in the evening (n=66 and n=79 for treated study and treated fellow eyes respectively) were identified, and IOP outcomes were summarized using descriptive statistics and two-sided, 95% confidence intervals (CI) for the means.
Normal IOP was defined as ≤19 mm Hg (mean IOP measured at 10 AM) in the Japanese population, since Asian populations typically have lower IOP than non-Asian populations.

[2] = Post hoc analysis of two Phase 3 clinical studies: IOP lowering in fellow eyes with baseline IOP ≤21 mm Hg; assay type: in vivo, human; conditions: for IOP lowering: fellow eyes with normal IOP at baseline (≤21 mm Hg mean diurnal)
Source text: The findings reported below derive from a post hoc analysis of the results of two multicenter, double-masked, parallel-group Phase 3 clinical studies that evaluated the intraocular pressure (IOP) lowering effect of a 0.024% solution of Compound (1) dissolved in vehicle in subjects with open-angle glaucoma or ocular hypertension.
Subjects≥18 years instilled one drop of a 0.024% solution of Compound (1) once daily in the evening and vehicle in the morning or timolol maleate 0.5% twice daily for 3 months (active controlled efficacy phase). Thereafter all subjects instilled Compound (1) for a further 9 months in the first study or 3 months in the second study (open-label safety extension phase).
Intraocular pressure (IOP) was measured at 8 AM, 12 PM, and 4 PM at all visits including baseline, week 2, week 6, month 3, month 6 (both studies) and months 9 and 12 (first study only).
Non-study (i.e. fellow) eyes with normal IOP at baseline treated with Compound (1) 0.024% once a day in the evening (n=50; treatment for up to 12 months) or with timolol maleate 0.5% twice a day (n=17; treatment for 3 months) were identified, and IOP outcomes were summarized using descriptive statistics and two-sided, 95% confidence intervals (CI) for the means.
Normal IOP was defined as ≤21 mm Hg (mean diurnal; average of 8 AM, 12 PM and 4 PM measurements) in the primarily Caucasian population.

[3] = 3 month efficacy phase, Compound (1) 0.024% once daily in the evening, timolol maleate 0.5% twice daily

Compound	IOP lowering in the study eye [1]	IOP lowering in the treated fellow eye [1]	IOP lowering effectiveness (in words) ([2]; eyes with IOP in the normal range (baseline ≤21 mm Hg), 0.024% QD in the evening)	IOP lowering ([2]; 0.024% solution once daily in the evening, over the 12 months study period)	IOP lowering [2, 3]
O=C(CCC/C=C\C[C@@H]1[C@@H](CC[C@@H](O)CCc2ccccc2)[C@H](O)C[C@@H]1O)OCCCCO[N+](=O)[O-] (relative stereo) [Compound (1), [1R-[1α(Z), 2α(R*), 3α, 5α]]-7-[3,5-dihydroxy-2-(3-hydroxy-5-phenylpentyl)cyclopentyl]-5-heptenoic acid 4-(nitrooxy)butyl ester]	3.4-4.2 mm Hg	3.2-3.9 mm Hg	appears to be more effective than timolol maleate; also recorded: effective for IOP lowering in eyes with IOP in the normal range	4.2-4.9 mm Hg	4.6-4.9 mm Hg
CC(C)(C)NC[C@H](O)COc1nsnc1N1CCOCC1 [timolol maleate, reference compound]	–	–	–	–	3.6-4.5 mm Hg
